These are literature values, as cited in patent US6943160B2, “Morpholine derivatives as antagonists of orexin receptors” (SmithKline Beecham plc, priority 2000, dated 2005).

One data set concerns freely-feeding rats. As to conditions: central administration, 4 hour time period.
The test system of a further data set is orexin receptors. As to conditions: central administration at onset of normal sleep period, rat.

Take “orexin-A: ligand (agonist) of the orexin receptors; human orexin-A has sequence SEQ ID NO: 1, pyroEPLPDCCRQKTCSCRLYELLHGAGNHAAGILTL-NH2”: the “increase in food intake over control rats receiving vehicle” value with freely-feeding rats was “approximately four-fold”. The effect on arousal result with orexin receptors is given as “dose-related increase in arousal”.
